# Laboratory results reported in US8883963B2 (Cadila Healthcare Limited, priority 2007, dated 2014).
# Non-standard residues stand in square brackets, D forms with d. Residues, ends and D or L forms follow the SMILES beside them. ξ: configuration not given here. ξNMeBip(2'-Et,4'-OMe) = CCc1cc(OC)ccc1-c1ccc(CC(NC)C(=O)O)cc1; Leu(5,5,5,5',5',5'-F6) = N[C@@H](CC(C(F)(F)F)C(F)(F)F)C(=O)O; ξBip(2'-Et-4'-OMe) = CCc1cc(OC)ccc1-c1ccc(CC(N)C(=O)O)cc1; ξNva(5-(3,5-Me2-Ph)) = Cc1cc(C)cc(CCCC(N)C(=O)O)c1; ξNMeNva(5-(2-F-Ph)) = CNC(CCCc1ccccc1F)C(=O)O; ξNva(5-(3-Cl-Ph)) = NC(CCCc1cccc(Cl)c1)C(=O)O; ξαMePhe(2-F) = CC(N)(Cc1ccccc1F)C(=O)O; NMeD = CN[C@@H](CC(=O)O)C(=O)O; aThr = C[C@H](O)[C@H](N)C(=O)O; Aib = CC(C)(N)C(=O)O
# Experiments:
# Format in all cases: in vitro ADME
# DPP IV = DPP IV (Homo sapiens, UniProt P27487); test: Stability against DPP IV enzyme; conditions: 37° C.; for % degradation of peptidomimetics in 24 h when incubated with DPP-IV enzyme: 2 μM peptidomimetic; for half-life at 2 μM: DPP IV enzyme, pH 7.8, 2 μM peptidomimetic, read-out: half-life (t1/2) when incubated with DPP-IV enzyme
# Protocol: (§1) Reactions were terminated by the addition of TFA/H2O (15 mL, 10% (v/v)). […] The column was equilibrated with TFA/H20, at a flow rate of 1 mL/min.
# [1] = Stability in human plasma; conditions: 2 μM peptidomimetic, pooled human plasma, 37° C.; for half-life at 2 μM: pH 7.8, read-out: half-life (t1/2) when incubated with human plasma
# Protocol: as §1
# [2] = Stability in simulated gastric fluid; conditions: 2 μM peptidomimetic, simulated gastric fluid pH 1.5, 37° C.; for half-life at 2 μM: read-out: half-life (t1/2) when incubated with simulated gastric fluid
# Protocol: as §1
# [3] = Stability in simulated intestinal fluid; conditions: 2 μM peptidomimetic, simulated intestinal fluid pH 7.5, 37° C.; for half-life at 2 μM: read-out: half-life (t1/2) when incubated with simulated intestinal fluid
# Protocol: as §1
# [4] = Stability in liver microsomes; conditions: 2 μM peptidomimetic, human liver microsomes, 37° C.; for half-life at 2 μM: pH 7.8, read-out: half-life (t1/2) when incubated with liver microsomes
# Protocol: as §1
# Chain of DPP IV (P27487 whole entry, species assumed): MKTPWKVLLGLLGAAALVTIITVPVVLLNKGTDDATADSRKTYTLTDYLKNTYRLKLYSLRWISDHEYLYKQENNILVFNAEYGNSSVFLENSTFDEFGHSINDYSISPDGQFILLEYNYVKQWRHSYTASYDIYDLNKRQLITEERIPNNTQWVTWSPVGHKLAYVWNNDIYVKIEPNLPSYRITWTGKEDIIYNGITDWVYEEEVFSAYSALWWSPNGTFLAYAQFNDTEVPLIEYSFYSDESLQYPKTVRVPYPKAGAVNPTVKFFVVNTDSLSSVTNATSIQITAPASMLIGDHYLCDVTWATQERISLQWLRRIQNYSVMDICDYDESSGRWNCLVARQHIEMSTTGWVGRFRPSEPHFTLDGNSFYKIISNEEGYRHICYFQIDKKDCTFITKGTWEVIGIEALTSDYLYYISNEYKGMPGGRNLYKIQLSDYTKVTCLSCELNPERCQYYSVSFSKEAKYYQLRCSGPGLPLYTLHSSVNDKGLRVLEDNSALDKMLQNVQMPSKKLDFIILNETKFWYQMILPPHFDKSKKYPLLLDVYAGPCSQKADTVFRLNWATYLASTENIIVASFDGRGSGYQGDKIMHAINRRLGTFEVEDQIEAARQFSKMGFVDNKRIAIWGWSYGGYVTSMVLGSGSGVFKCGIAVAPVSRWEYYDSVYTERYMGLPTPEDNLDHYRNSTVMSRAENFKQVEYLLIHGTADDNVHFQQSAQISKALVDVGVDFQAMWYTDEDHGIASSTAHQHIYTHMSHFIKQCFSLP
Structure (SMILES),% degradation of peptidomimetics in 24 h when incubated with DPP-IV enzyme (DPP IV),half-life at 2 μM (DPP IV),% degradation of peptidomimetics in 24 h when incubated with human plasma [1],half-life at 2 μM [1],% degradation of peptidomimetics in 24 h when incubated with simulated gastric fluid [2],half-life at 2 μM [2],% degradation of peptidomimetics in 24 h when incubated with simulated intestinal fluid [3],half-life at 2 μM [3],half-life (t1/2) when incubated with liver microsomes [4],% degradation of peptidomimetics in 24 h when incubated with liver microsomes [4],half-life (t1/2) when incubated with simulated intestinal fluid [3],half-life at 2 μM [4],half-life (t1/2) when incubated with simulated gastric fluid [2],half-life (t1/2) when incubated with human plasma [1]
"CCc1cc(OC)ccc1-c1ccc(CC(C(=O)N(C)C(CCCc2ccccc2F)C(N)=O)N(C)C(=O)[C@H](CC(=O)O)N(C)C(=O)[C@H](CO)NC(=O)[C@@H](NC(=O)C(C)(Cc2ccccc2F)NC(=O)[C@@H](NC(=O)CNC(=O)[C@H](CC(C(F)(F)F)C(F)(F)F)NC(=O)C(C)(C)NC(=O)[C@@H](N)Cc2c[nH]cn2)[C@H](C)O)[C@H](C)O)cc1 (stereo partly drawn) [compound 221] (H-H[Aib][Leu(5,5,5,5',5',5'-F6)]G[aThr][ξαMePhe(2-F)][aThr]S[NMeD][ξNMeBip(2'-Et,4'-OMe)][ξNMeNva(5-(2-F-Ph))]-NH2)",00%,> 24 h,00%,> 24 h,00%,> 24 h,00%,> 24 h,(5) h,32%,–,–,–,–
CCc1cc(OC)ccc1-c1ccc(CC(NC(=O)[C@H](CC(=O)O)NC(=O)[C@H](CO)NC(=O)[C@@H](NC(=O)[C@H](Cc2ccccc2)NC(=O)[C@@H](NC(=O)CNC(=O)[C@H](CCC(N)=O)NC(=O)[C@H](CO)NC(=O)[C@@H](N)Cc2c[nH]cn2)[C@@H](C)O)[C@@H](C)O)C(=O)NC(CCCc2cccc(Cl)c2)C(N)=O)cc1 (stereo partly drawn) [compound 7] (H-HSQGTFTSD[ξBip(2'-Et-4'-OMe)][ξNva(5-(3-Cl-Ph))]-NH2),71%,8 h,69%,8 h,11%,7 h,43%,–,–,77%,(6) h,2 h,–,–
"CCc1cc(OC)ccc1-c1ccc(CC(NC(=O)[C@H](CC(=O)O)NC(=O)[C@H](CO)NC(=O)[C@@H](NC(=O)[C@H](Cc2ccccc2)NC(=O)[C@@H](NC(=O)CNC(=O)[C@H](CCC(N)=O)NC(=O)C2(NC(=O)[C@@H](N)Cc3c[nH]cn3)CC2)[C@@H](C)O)[C@@H](C)O)C(=O)NC(CCCc2ccc(F)cc2F)C(N)=O)cc1 (single isomer, unassigned) [compound 70]",70%,9 h,71%,8 h,14%,–,40%,–,–,78%,(6) h,1 h,(8) h,–
"CCc1cc(OC)ccc1-c1ccc(CC(NC(=O)[C@H](CC(=O)O)NC(=O)[C@H](CO)NC(=O)[C@@H](NC(=O)[C@H](Cc2ccccc2)NC(=O)[C@@H](NC(=O)CNC(=O)[C@H](CCC(N)=O)NC(=O)[C@H](C)NC(=O)[C@@H](N)Cc2c[nH]cn2)[C@@H](C)O)[C@@H](C)O)C(=O)NC(CCCc2cc(C)cc(C)c2)C(N)=O)cc1 (stereo partly drawn) [compound 14] (H-HAQGTFTSD[ξBip(2'-Et-4'-OMe)][ξNva(5-(3,5-Me2-Ph))]-NH2)",74%,9 h,75%,8 h,12%,–,46%,–,–,83%,(6) h,1 h,(8) h,–
"CCc1cc(OC)ccc1-c1ccc(CC(NC(=O)[C@H](CC(=O)O)NC(=O)[C@H](CO)NC(=O)[C@@H](NC(=O)[C@H](Cc2ccccc2)NC(=O)[C@@H](NC(=O)CNC(=O)[C@H](CCC(N)=O)NC(=O)C2(C)CCCN2C(=O)[C@@H](N)Cc2c[nH]cn2)[C@@H](C)O)[C@@H](C)O)C(=O)NC(CCCc2ccc(Cl)cc2C)C(N)=O)cc1 (single isomer, unassigned) [compound 12]",76%,9 h,78%,8 h,14%,–,43%,–,–,80%,(6) h,1 h,(8) h,–
CCc1cc(OC)ccc1-c1ccc(CC(CNC(CCCc2ccccc2)C(N)=O)NC(=O)[C@H](CC(=O)O)NC(=O)[C@H](CO)NC(=O)[C@@H](NC(=O)C(C)(Cc2ccccc2F)NC(=O)[C@@H](NC(=O)CNC(=O)[C@H](CC(C(F)(F)F)C(F)(F)F)NC(=O)C(C)(C)NC(=O)[C@@H](N)Cc2c[nH]cn2)[C@H](C)O)[C@H](C)O)cc1 (stereo partly drawn) [compound 215],00%,> 24 h,00%,> 24 h,00%,> 24 h,00%,> 24 h,(5) h,32%,–,–,–,–
CCc1cc(OC)ccc1-c1ccc(CC(NC(=O)[C@H](CC(=O)O)NC(=O)[C@H](CO)NC(=O)[C@@H](NC(=O)C(C)(Cc2ccccc2F)NC(=O)[C@@H](NC(=O)CNC(=O)[C@H](CC(C(F)(F)F)C(F)(F)F)NC(=O)C(C)(C)NC(=O)[C@@H](N)Cc2c[nH]cn2)[C@H](C)O)[C@@H](C)O)C(=O)NC(CCCc2ccccc2)C(N)=O)cc1 (stereo partly drawn) [compound 226],74%,–,75%,–,100%,0.5 h,100%,0.5 h,–,100%,–,0.5 h,–,(9) h
CCc1cc(OC)ccc1-c1ccc(CC(NC(=O)[C@H](CC(=O)O)NC(=O)[C@H](CO)NC(=O)[C@@H](NC(=O)C(C)(Cc2ccccc2F)NC(=O)[C@@H](NC(=O)CNC(=O)[C@H](CC(C(F)(F)F)C(F)(F)F)NC(=O)C(C)(C)NC(=O)[C@@H](N)Cc2c[nH]cn2)[C@H](C)O)[C@H](C)O)C(=O)NC(CCCc2ccccc2F)C(N)=O)cc1 (stereo partly drawn) [compound 229],70%,–,71%,–,100%,0.5 h,100%,0.5 h,–,100%,–,0.5 h,–,(9) h
